The text below walks through data of patent US7109203B2, “Sulfonamide derivatives” (Novartis AG, priority 2001, dated 2006).

In general, pKi refers to the negative decadic logarithm of the Ki, by convention in mol/L. High values mean a small Ki, low ones a large Ki.

Each structure is given as a SMILES string. pKi: −log10 of the molar value. Where a SMILES comes first, the peptide text is derived from it. [ ]: non-standard residue; d: D form. Oic = O=C(O)[C@@H]1C[C@@H]2CCCC[C@@H]2N1; Hyp = O=C(O)[C@@H]1C[C@@H](O)CN1; dTic = O=C(O)[C@H]1Cc2ccccc2CN1; 2Thi = N[C@@H](Cc1cccs1)C(=O)O

The assay has as its target T1, human bradykinin B1 receptor (Homo sapiens, UniProt P46663).
T1 construct: To upregulate expression of the B1 receptor the cells are treated with 100 units/ml of IL-1β; endogenous in cells; host or cells: WI-38 cells treated with 100 units/ml IL-1β for 3 hours
T1 sequence (P46663 1-353): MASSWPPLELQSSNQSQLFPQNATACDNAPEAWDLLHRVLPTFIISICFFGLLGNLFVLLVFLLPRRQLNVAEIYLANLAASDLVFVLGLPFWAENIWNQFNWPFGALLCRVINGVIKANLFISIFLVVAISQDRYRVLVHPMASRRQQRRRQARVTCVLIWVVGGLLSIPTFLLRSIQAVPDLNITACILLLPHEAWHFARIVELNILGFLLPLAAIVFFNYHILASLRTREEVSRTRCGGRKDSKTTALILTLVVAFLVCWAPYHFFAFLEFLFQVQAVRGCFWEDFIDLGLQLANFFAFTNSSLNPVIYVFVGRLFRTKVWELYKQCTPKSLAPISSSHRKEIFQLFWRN
Put plainly: Test I: Bradykinin Receptor Binding Assay ([3H]-desArg10kallidin displacement, IL-1β-treated WI-38 cells). The conditions noted are these: displacement of [3H]-desArg10kallidin, KI from IC50 by Cheng-Prussoff equation. A general note: Displacement assays read how much labelled ligand stays bound in the presence of the test substance.

Description: WI-38 cells are grown in Dulbecco's Modified Eagle Medium s supplemented with 1% non-essential amino acids, 2 mM L-glutamine, 100 IU/ml penicillin, 100 μg/ml streptomycin and 10% foetal calf serum. The cells are grown in 175 cm^2 tissue culture flasks and split approximately 1–2 times a week at a ratio of 1:2 using trypsin to detach the cells. WI-38 cells are plated onto 24 well plates at approximately 50,000 cells per well and grown overnight. To upregulate expression of the B1 receptor the cells are treated with 100 units/ml of IL-1β for 3 hours prior to the assay. The binding buffer is 10 mM HEPES in Hank's Balanced Salt solution pH 7.4 plus 1 mM phenanthroline and 0.14 mg/ml bacitracin. […] Non-specific binding is determined with 3 μM desArg^10kallidin. […] The cells are solubilised with 0.2% SDS and the amount of radioactivity in the samples determined by liquid scintillation counting. […]
Results are calculated by subtracting the value for non-specific binding from all values and calculating the amount of binding for each concentration of compound as a percentage of the specific binding with no compound. The IC50 values are calculated in ORIGIN using a logistic fit. KI values are calculated from the IC50 values using the Cheng-Prussoff equation (KI=IC50/(1+([RL]/Kd)) where [RL] is the radioligand concentration.

Consider `O=C(O)CN(CCOc1ccc2c(c1)CCC2)S(=O)(=O)c1ccc(Br)cc1Cl` [Example 5, {(4-bromo-2-chloro-benzenesulfonyl)-[2-(indan-5-yloxy)-ethyl]-amino}-acetic acid], for which the negative logarithm of the Ki (pKi) is about 6.52.
The figure for `N=C(N)NCCC[C@@H](N)C(=O)N[C@@H](CCCNC(=N)N)C(=O)N1CCC[C@H]1C(=O)N1C[C@H](O)C[C@H]1C(=O)NCC(=O)N[C@@H](Cc1cccs1)C(=O)N[C@@H](CO)C(=O)N1Cc2ccccc2C[C@@H]1C(=O)N1[C@H](C(=O)O)C[C@@H]2CCCC[C@@H]21` [desArg^10HOE140, D-Arg-[Hyp^3, Thi^5, D-Tic^7, Oic^8]desArg^9 bradykinin] (H-[dR]RP[Hyp]G[2Thi]S[dTic][Oic]-OH; N-terminus and C-terminus assumed) is 7.20.
